Series [1] has as its system Escherichia coli. The series can be described thus: Antibacterial activity against Escherichia coli harboring acrF gene deletion mutant by alamar blue reagent based micro dilution broth assay. It counts as functional, organism-based.
The target in the next series is Cytochrome P450 3A4 (Homo sapiens, UniProt P08684). The series can be described thus: Inhibition of human CYP3A4 using BQ as substrate assessed as reduction in 7-hydroxyquinoline metabolite formation incubated for 30 mins by high throughput assay. It counts as ADME. The note with it: read-out: INH.
Series [2] in a line: Primary phase half life in mouse liver microsomes at 0.5 ug/ml in presence of NADPH by UPLC analysis. It counts as ADME. The conditions noted are these: read-out: alphat1/2. A general note: Liver microsomes are a subcellular fraction often used to study metabolism.
Series [3] is described as follows: Cytotoxicity against human MCF10A cells after 4 hrs by alamar blue assay. It counts as cell-based. The conditions noted are these: MCF-10A. For orientation: Alamar Blue is a resazurin reagent that responds to reducing activity.
Series [4] deals with Escherichia coli. The series can be described thus: Antibacterial activity against Escherichia coli NR698 harboring imp gene deletion mutant by alamar blue reagent based micro dilution broth assay. It counts as functional.
Series [5] deals with Escherichia coli. The series can be described thus: Antibacterial activity against Escherichia coli harboring emrB gene deletion mutant by alamar blue reagent based micro dilution broth assay. It counts as functional, organism-based.
A further series deals with Cytochrome P450 2D6 (Homo sapiens, UniProt P10635). The series can be described thus: Inhibition of human CYP2D6 using AMMC as substrate assessed as reduction in 3-[-2-(N,Ndiethylamino)ethyl]-7-hydroxy-4-methylcoumarin hydrochloride metabolite formation incubated for 30 mins by high throughput assay. It counts as ADME. The note with it: read-out: INH.
In series [6] the test system is Staphylococcus aureus. The series can be described thus: microbe, parasite or virus in culture. The note with it: ATCC 43300, 18 h.
The nature of series [7]: Terminal half life in mouse liver microsomes at 0.5 ug/ml in presence of NADPH by UPLC analysis. It counts as ADME. The note with it: read-out: beta t1/2.
Series [8] concerns HepG2. The series is described as follows: Cytotoxicity against human HepG2 cells after 4 hrs by alamar blue assay. It counts as cell-based. The conditions noted are these: HepG2, 4 h.
Series [9] can be described thus: Therapeutic index, ratio of IC50 for human HepG2 cells to MIC for Staphylococcus aureus ATCC 43300. It counts as cell-based. The conditions noted are these: read-out: TI.
For series [10], the system named is Escherichia coli. The series is described as follows: Antibacterial activity against Escherichia coli ATCC 25922 by alamar blue reagent based micro dilution broth assay. It counts as functional.
The nature of series [11]: Therapeutic index, ratio of IC50 for human MCF10A cells to MIC for Staphylococcus aureus ATCC 43300. It counts as cell-based, MCF-10A. The note with it: read-out: TI.
The subject of series [12] is Escherichia coli. The series is described as follows: Antibacterial activity against Escherichia coli harboring macB gene deletion mutant by alamar blue reagent based micro dilution broth assay. It counts as functional, organism-based.
Series [13] has as its system Escherichia coli. The series can be described thus: Antibacterial activity against Escherichia coli JW0451 harboring AcrB gene deletion mutant by alamar blue reagent based micro dilution broth assay. It counts as functional, organism-based.
A short description of series [14]: Ratio of MIC for Escherichia coli ATCC 25922 to MIC for Escherichia coli NR698 harboring imp gene deletion mutant. It counts as functional.
Series [15] in a line: Cytotoxicity against HDF after 4 hrs by alamar blue assay. The conditions noted are these: Homo sapiens.
The nature of series [16]: Therapeutic index, ratio of IC50 for human MCF10 cells to MIC for Staphylococcus aureus ATCC 43300. It counts as cell-based. The note with it: read-out: TI.
A short description of series [17]: Therapeutic index, ratio of IC50 for HDF to MIC for Staphylococcus aureus ATCC 43300. The conditions noted are these: human, read-out: TI.
Series [18] concerns Staphylococcus aureus. The series can be described thus: Bactericidal activity against Staphylococcus aureus ATCC 43300. It counts as functional, organism-based.
A short description of series [19]: Cytotoxicity against HDF at 100 uM after 4 hrs by alamar blue assay. The note with it: human.
Series [20] deals with HepG2. The series is described as follows: Cytotoxicity against human HepG2 cells at 100 uM after 4 hrs by alamar blue assay. It counts as cell-based. The note with it: hepg2, 4 h.
Series [21] concerns Escherichia coli. The series is described as follows: Antibacterial activity against Escherichia coli harboring efflux pump deletion mutant after 8 hrs. It counts as functional.
Series [22] has as its system Escherichia coli. The series can be described thus: Antibacterial activity against Escherichia coli harboring ompF gene deletion mutant by alamar blue reagent based micro dilution broth assay. It counts as functional.
The subject of series [23] is Escherichia coli. The series can be described thus: Antibacterial activity against Escherichia coli W4573 after 8 hrs. It counts as functional. The conditions noted are these: W4573, 8 h.
In series [24] the test system is Staphylococcus aureus. The series is described as follows: Antibacterial activity against methicillin-resistant Staphylococcus aureus by agar dilution method. It counts as functional. A general note: In agar dilution the substance is mixed into plates at graded concentrations.
Series [25] relates to Escherichia coli. The series can be described thus: Antibacterial activity against Escherichia coli harboring ompC gene deletion mutant by alamar blue reagent based micro dilution broth assay. It counts as functional.
Series [26] concerns Escherichia coli. The series is described as follows: microbe, parasite or virus in culture.

In brackets after ≈: the same amount, converted by molar mass. Activity calls are given as the source filed them. The calls are words filed in the database; no cut-off is given here. Where only a bound is given, the exact number is not on record here.

From ChEMBL document CHEMBL3826924, “Charged Nonclassical Antifolates with Activity Against Gram-Positive and Gram-Negative Pathogens” (ACS Med Chem Lett, 2016) come the findings set out here.

Sequence of Cytochrome P450 2D6 (P10635 whole entry): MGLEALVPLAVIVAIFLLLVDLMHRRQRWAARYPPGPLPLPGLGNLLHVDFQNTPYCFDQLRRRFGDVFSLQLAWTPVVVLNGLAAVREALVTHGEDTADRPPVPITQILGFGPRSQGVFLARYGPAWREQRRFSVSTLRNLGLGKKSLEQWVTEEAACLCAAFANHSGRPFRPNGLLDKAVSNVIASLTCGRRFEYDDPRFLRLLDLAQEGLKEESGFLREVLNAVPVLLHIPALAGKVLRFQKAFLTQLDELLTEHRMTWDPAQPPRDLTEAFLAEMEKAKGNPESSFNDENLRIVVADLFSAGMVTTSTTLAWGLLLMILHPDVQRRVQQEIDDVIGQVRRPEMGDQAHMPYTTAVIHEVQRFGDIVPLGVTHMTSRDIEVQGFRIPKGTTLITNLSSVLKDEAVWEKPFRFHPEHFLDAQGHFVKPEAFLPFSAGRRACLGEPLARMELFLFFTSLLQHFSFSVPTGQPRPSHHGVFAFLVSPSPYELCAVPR
Sequence of Cytochrome P450 3A4 (P08684 whole entry): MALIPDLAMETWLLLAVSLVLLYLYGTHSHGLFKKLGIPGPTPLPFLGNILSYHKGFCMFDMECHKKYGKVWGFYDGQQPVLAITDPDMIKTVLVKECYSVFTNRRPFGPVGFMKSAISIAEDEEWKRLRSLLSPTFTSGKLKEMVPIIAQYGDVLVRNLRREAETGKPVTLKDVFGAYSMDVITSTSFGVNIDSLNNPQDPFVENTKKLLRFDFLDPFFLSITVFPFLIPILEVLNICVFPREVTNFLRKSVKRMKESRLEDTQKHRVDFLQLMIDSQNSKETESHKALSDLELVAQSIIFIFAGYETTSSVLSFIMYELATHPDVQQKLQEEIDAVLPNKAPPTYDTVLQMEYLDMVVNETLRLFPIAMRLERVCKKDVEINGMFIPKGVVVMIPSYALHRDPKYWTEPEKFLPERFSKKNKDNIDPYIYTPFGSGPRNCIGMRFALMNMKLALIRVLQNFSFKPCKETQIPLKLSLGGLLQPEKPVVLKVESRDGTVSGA

Take `CCc1nc(N)nc(N)c1C#CCc1cc(-c2ccc(C(=O)O)cc2)ccc1OC`: the result in the series on Escherichia coli [1], with Escherichia coli [5], with Escherichia coli [12] and in the series on Escherichia coli [13] was Active. Besides, the IC50 is greater than 50 µM on Cytochrome P450 3A4; greater than 100 µM in series [3]; greater than 50 µM on Cytochrome P450 2D6; greater than 500 µM in the series on HepG2 [8]; greater than 500 µM in series [15]. In addition, the half-life at 0.5 ug/ml in series [2] was determined as 1.65 h; in [7], 1.45 h. For the same molecule, the figures for the MIC in the series with Escherichia coli [4], against Staphylococcus aureus [6] and with Escherichia coli [10] were 0.0098 µg/mL (≈ 0.0244 µM), 0.0195 µg/mL (≈ 0.0485 µM) and greater than 20 µg/mL, respectively. Further, the selectivity ratio in [9], in [11], in series [16] and in [17] was greater than 500000 in each case. In addition, in series [14], the Ratio was 2000.
With `CCc1nc(N)nc(N)c1C#C[C@H](C)c1cc(OC)cc(-c2ccc(C(=O)O)cc2)c1`, the result in the series on Escherichia coli [1], in the series with Staphylococcus aureus [18], in the series on Escherichia coli [5], in the series on Escherichia coli [12] and in the series with Escherichia coli [13] was Active. For the same molecule, in series [3], the IC50 was greater than 100 µM. The MIC against Escherichia coli [4] worked out at 0.0024 µg/mL (≈ 0.00576 µM); in the series on Staphylococcus aureus [6], 0.0098 µg/mL (≈ 0.0235 µM); against Escherichia coli [10] it was 10 µg/mL (≈ 24 µM). For the same molecule, the Activity entry (in series [19]; in the series with HepG2 [20]) was “Non-toxic” in each case.
Consider `CN(Cc1cnc2nc(N)nc(N)c2n1)c1ccc(C(=O)N[C@@H](CCC(=O)O)C(=O)O)cc1` [METHOTREXATE], for which the MIC in the series with Escherichia coli [4] is 40 µg/mL (≈ 88 µM); against Staphylococcus aureus [6] it was greater than 40 µg/mL; in the series with Escherichia coli [21] it was 64 µM (≈ 29.1 µg/mL); in the series with Escherichia coli [10], greater than 40 µg/mL; with Escherichia coli [22], no less than 40 µg/mL; with Escherichia coli [23] it was 1000 µM (≈ 454 µg/mL). Further, the MIC in the series on Escherichia coli [25] was no less than 40 µg/mL. The MIC50 (usually an inhibitory concentration at the 50% level, which refers to growth in some studies and to a panel of isolates in others) against Staphylococcus aureus [24] was 20 µg/mL (≈ 44 µM). For the same molecule, the MIC90 (as a rule, the lowest concentration that inhibits either 90% of growth or 90% of the strains tested, depending on the study) against Staphylococcus aureus [24] is 100 µg/mL (≈ 220 µM).
For the molecule `CCc1nc(N)nc(N)c1C#CCc1cc(-c2cccc(C(=O)O)c2)ccc1OC.O=C(O)C(F)(F)F`, the outcome in the series on Escherichia coli [1], in the series on Escherichia coli [5], in the series on Escherichia coli [12] and with Escherichia coli [13] was Active. Also, the MIC in the series on Escherichia coli [4] is 0.0391 µg/mL; in the series with Staphylococcus aureus [6], 0.625 µg/mL; with Escherichia coli [10], greater than 20 µg/mL. For the same molecule, the Activity entry (in [19]; in the series on HepG2 [20]) was “Non-toxic” throughout. Moreover, the Ratio in series [14] came out at 2000.
Turning to `CCc1nc(N)nc(N)c1C#CCc1cc(-c2ccccc2C(=O)O)ccc1OC`, the result in the series with Escherichia coli [1], in the series with Escherichia coli [5], in the series on Escherichia coli [12] and in the series on Escherichia coli [13] was Active. Besides, the MIC is 20 µg/mL (≈ 49.7 µM) in the series with Escherichia coli [4], greater than 20 µg/mL in the series on Staphylococcus aureus [6] and greater than 32 µg/mL with Escherichia coli [10]. Further, the Activity entry (in [19]; with HepG2 [20]) was “Non-toxic” in each case. The Ratio in series [14] amounted to 2000.
`COc1cc(Cc2cnc(N)nc2N)cc(OC)c1OC` [TRIMETHOPRIM]: the MIC in the series with Escherichia coli [4] turned out to be 0.0098 µg/mL (≈ 0.0338 µM); against Escherichia coli [26], 0.312 µg/mL (≈ 1.08 µM); against Escherichia coli [10], 0.312 µg/mL (≈ 1.08 µM).
Take `CCc1nc(N)nc(N)c1C#C[C@@H](C)c1cc(OC)cc(-c2ccc(C(=O)O)cc2)c1`: the outcome with Escherichia coli [1], with Staphylococcus aureus [18], in the series on Escherichia coli [5], in the series on Escherichia coli [12] and in the series on Escherichia coli [13] was Active. For the same molecule, in series [3], the IC50 was greater than 100 µM. Moreover, the MIC against Escherichia coli [4] is 0.0024 µg/mL (≈ 0.00576 µM); in the series with Staphylococcus aureus [6], 0.0098 µg/mL (≈ 0.0235 µM); against Escherichia coli [10] it was 10 µg/mL (≈ 24 µM). Also, the Activity entry (in series [19]; in the series with HepG2 [20]) was “Non-toxic” in each case.
For the molecule `CC(=O)O.CCc1nc(N)nc(N)c1C#C[C@H](C)c1cc(-c2ccc(C(=O)O)cc2)ccc1OC`, the result with Escherichia coli [1], with Escherichia coli [5], in the series with Escherichia coli [12] and in the series on Escherichia coli [13] was Active. This molecule yielded an IC50 in series [3] greater than 100 µM. Moreover, the MIC in the series with Escherichia coli [4] is 0.0391 µg/mL; against Staphylococcus aureus [6], 0.625 µg/mL; in the series on Escherichia coli [10] it was greater than 20 µg/mL. In addition, the Activity entry (in series [19]; in the series on HepG2 [20]) was “Non-toxic” each time.
As to `CC(=O)O.CCc1nc(N)nc(N)c1C#C[C@@H](C)c1cc(-c2ccc(C(=O)O)cc2)ccc1OC`, the outcome in the series with Escherichia coli [1], in the series on Escherichia coli [5], in the series on Escherichia coli [12] and in the series on Escherichia coli [13] was Active. Also, the IC50 in series [3] was greater than 100 µM. Also, the MIC against Escherichia coli [4] was 0.0012 µg/mL; with Staphylococcus aureus [6] it was 0.0195 µg/mL; against Escherichia coli [10], 20 µg/mL. The Activity entry (in series [19]; with HepG2 [20]) was “Non-toxic” in each case.
Turning to `CCc1nc(N)nc(N)c1C#CCc1cc(OC)cc(-c2ccc(C(=O)O)cc2)c1.O=C(O)C(F)(F)F`, the result in the series with Escherichia coli [1], with Staphylococcus aureus [18], in the series with Escherichia coli [5], in the series with Escherichia coli [12] and with Escherichia coli [13] was Active. In series [3], this molecule came in with an IC50 greater than 100 µM. Further, the MIC in the series with Escherichia coli [4] was 0.0049 µg/mL; in the series on Staphylococcus aureus [6], 0.0195 µg/mL; in the series with Escherichia coli [10], greater than 20 µg/mL. Moreover, the Activity entry (in series [19]; with HepG2 [20]) was “Non-toxic” each time.
